Source: patent publication EP3829564B1, “CURCUMIN AND HOMOTAURINE FOR USE IN PREVENTING OR TREATING COGNITIVE DECLINE FORMS” (ALERE VITAM S.R.L., priority 2018, dated 2020)

Key:
Aβ42 peptide = molecular target: T1, Aβ42 peptide (Homo sapiens, UniProt P05067); test: Thioflavin-T assay for inhibition of Aβ 42 aggregation; type: biochemical
T1 construct: Beta-amyloid (Aβ 1-42) aggregation studies were conducted; purchased AnaSpec, Inc, Fremont, CA
Experimental: In the present study, the fluorescence spectroscopy with thioflavin T was used to examine the effects of curcumin (CUR), homotaurine (HOM) taken individually and a combination of the two compounds as disclosed herein on the formation of toxic Aβ aggregates.
Thioflavin-T (Th-T dosage), analysis for the inhibition of the Aβ 42 aggregation (also referred to AB42).
Beta-amyloid (Aβ 1-42) aggregation studies were conducted using the SensoLyte ThT Ab42 aggregation kit (AnaSpec, Inc, Fremont, CA).
The Aβ42 peptide was dissolved in a cold analysis buffer (4 °C) and allowed to hydrate for a few minutes. The solution was centrifuged at 10,000 rpm for 5 minutes at 4°C to centrifuge any precipitated material. The fibrillation reaction was initiated by adding thioflavin dye (ThT) at a concentration of 2 mmol/L.
Three test samples (CUR; HOM; CUR + HOM) were added in a volume of 5 µL and the reaction was started by adding the Aβ42 peptide solution. The final volume of the test samples was 100 µL. At the same time, the positive control and the negative control containing nordihydroguaiaretic acid (NDGA), a well-defined inhibitor of Ab aggregation, at the final concentration of 100 µmol/L were established. Fluorescence intensity was measured at 37°C with Ex/Em ¼ 440 nm/484 nm and by shaking of 15s between readings using the microplate reader (Synergy H1; BioTek, Winooski, VT). The fluorescence intensity measurements expressed as relative fluorescence units (RFU) were taken for 90 minutes at 5-minute intervals.

[1] = tested on: transgenic Alzheimer's mouse (Tg2576); conditions: dietary regime containing curcumin for 6 months; cited from earlier work
HO-1 [2] = test: cells; conditions: 6 h, read-out: maximum increase in HO-1 mRNA, relative to the non-inducible paralogue HO-2 gene
Experimental: (§1) To confirm that the expression of the HO-1 gene measured at the mRNA level corresponded to an equivalent increase in heme oxygenase activity, this activity was measured at the same doses of curcumin and homotaurine 6 and 24 hours after administration.

Nrf2 = Nrf2 protein expression in nuclear extracts (Western blot); type: cell-based, rat; conditions: 25 µM; for expression of the Nrf2 protein in nuclear extracts: cortical neurons, astrocytes and endothelial cells, over time, three independent Western blots
Experimental: Three different cell lines, cortical neurons, astrocytes and endothelial cells, were exposed to curcumin, homotaurine or a combination of the two compounds at the final concentration of 25 µM to evaluate the expression of the Nrf2 protein over time.
The rat hippocampal neurons (H 19-7) were purchased by the American Type Culture Collection (Manassas, VA, USA) and cultured according to the manufacturer's instructions.
The neurons were washed twice with 1X PBS. The cells were then collected in 1 ml of 1X PBS and centrifuged at 3000 rpm for 3 min at 4°C. The cell pellet was carefully resuspended in […] of cold buffer containing HEPES 10 mM (pH 7.9), KCI 10 mM, EDTA 0.1 mM, EGTA 0.1 mM, DTT 1 µM and complete protease inhibitor cocktail (Roche, Mannheim, Germany).
The pellet was then incubated on ice for 15 minutes to allow the cells to swell. After this time, 15 µl of 10% of NP-40 were added and the tube was vortexed for 10 s. The homogenate was then centrifuged at 3000 rpm for 3 min at 4°C and the nuclear pellet was resuspended in 30 µl of cold buffer consisting of HEPES 20 mM (pH 7.9), NaCl 0,4 M, EDTA 1 mM, EGTA 1 mM, DTT 1 µM and protease inhibitors. The pellet was then incubated on ice for 15 minutes and vortexed for 10-15 s every 2 minutes. The nuclear extract was finally centrifuged at 13,000 rpm for 5 minutes at 4°C. The supernatant containing the nuclear proteins was resolved with SDS-polyacrylamide gel and subjected to immunoblot analysis using anti-Nrf2 antibodies (dilution 1: 500) and anti-Sp1 (dilution 1: 500).

Aβ40 = Aβ40 (Homo sapiens, UniProt P05067); conditions: compared with ibuprofen and naproxen; cited from earlier work
heme oxygenase = test: Heme oxygenase activity in treated cells; type: cell-based; conditions: same doses; 6 and 24 hours after administration
Experimental: as §1

HO-1 [3] = conditions: 6 hours; for increase in HO-1 mRNA: 5, 10, 15 and 30 µM, cortical neurons, astrocytes and endothelial cells; for concentration of maximum HO-1 mRNA: tested 5, 10, 15 and 30 µM
Experimental: as §1

Aβ42 oligomer = molecular target: T2, Aβ42 oligomer (Homo sapiens, UniProt P05067); conditions: prior art statement; cited from earlier work
T2 construct: prevents the formation and the toxicity of Aβ42 oligomer

[4] = fibrillation time 30 min and 90 min, vs control

T1 sequence (P05067 672-713 limits assumed): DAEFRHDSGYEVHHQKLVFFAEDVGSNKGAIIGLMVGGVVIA
Chain of Aβ40 (P05067 672-711): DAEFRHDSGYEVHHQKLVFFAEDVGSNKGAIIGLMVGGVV
T2 sequence (P05067 672-713): as the sequence (P05067 672-713 limits assumed) above

Row | SMILES | Aβ aggregation (ThT fluorescence) (Aβ42 peptide; 100 µmol/L, control inhibitor) | Aβ aggregation (ThT fluorescence) (Aβ42 peptide; [4]) | cognitive deficits induced by Aβ amyloid [1] | indices of oxidative damage and inflammation in the brain [1] | maximal fold induction at 15 µM (HO-1 [2]) | time Nrf2 expression remained upregulated (Nrf2; after treatment) | expression of the Nrf2 protein in nuclear extracts (Nrf2) | Aβ40 aggregation inhibition (Aβ40) | heme oxygenase activity (heme oxygenase) | increase in HO-1 mRNA (HO-1 [3]) | concentration of maximum HO-1 mRNA (HO-1 [3]) | concentration preventing formation and toxicity of Aβ42 oligomer (Aβ42 oligomer)
1 | CC(Cc1ccc(O)c(O)c1)C(C)Cc1ccc(O)c(O)c1 (centres unmarked) [NDGA, nordihydroguaiaretic acid] | inhibitor of the Aβ aggregation (p <.001) | – | – | – | – | – | – | – | – | – | – | –
2 | COc1cc(C=CC(=O)CC(=O)C=Cc2ccc(O)c(OC)c2)ccc1O [curcumin, 1,7-bis [4-Hydroxy-3-methoxyphenyl]-1,6-heptadiene-3,5-dione] | – | significantly influence the fibrillation reaction | reverses the cognitive deficits induced by Aβ amyloid | suppression of the indices of the oxidative damage and the inflammation in the brain | ~6 | up to 12 hours | significant timedependent increase | better than ibuprofen and naproxen | comparable to the results obtained by looking at cellular mRNAs | dosedependent increase in HO-1 mRNA | 15 µM | 0.1 to 11.0 µM
3 | NCCCS(=O)(=O)O [homotaurine, 3-amino-1-propanesulfonic acid] | – | significantly influence the fibrillation reaction | – | – | – | – | lower increase in nuclear Nrf2 | – | comparable to the results obtained by looking at cellular mRNAs | much less active in inducing the expression of the HO-1 gene | 15 µM | –
